Measurements published in patent US10975084B2, “KDM5 inhibitors” (Merck Sharp & Dohme Corp., priority 2016, dated 2021).

Molecular target: KDM5B (Homo sapiens (Human), UniProt Q9UGL1)
Test: KDM5B TR-FRET Enzyme Activity Assay
Type: biochemical
Settings: LANCE TR-FRET; 5 nM full-length recombinant KDM5B; ten point titration 100000 nM to 5.08 nM
How it was run: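 Full-length KDM5B from Sf21 cells (5 nM) was preincubated 30 min with compound in HEPES pH 7.3 buffer with ascorbate and 2 μM Fe(II). Reaction with 500 nM biotinylated H3K4Me3 peptide and 500 nM α-ketoglutarate ran 60 min. Product was detected by TR-FRET (Eu-anti-H3K4Me1-2/streptavidin-Dylight 650, 665/615 ratio); IC50 came from a 4-parameter fit.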

KDM5B, sequence (Q9UGL1 whole entry): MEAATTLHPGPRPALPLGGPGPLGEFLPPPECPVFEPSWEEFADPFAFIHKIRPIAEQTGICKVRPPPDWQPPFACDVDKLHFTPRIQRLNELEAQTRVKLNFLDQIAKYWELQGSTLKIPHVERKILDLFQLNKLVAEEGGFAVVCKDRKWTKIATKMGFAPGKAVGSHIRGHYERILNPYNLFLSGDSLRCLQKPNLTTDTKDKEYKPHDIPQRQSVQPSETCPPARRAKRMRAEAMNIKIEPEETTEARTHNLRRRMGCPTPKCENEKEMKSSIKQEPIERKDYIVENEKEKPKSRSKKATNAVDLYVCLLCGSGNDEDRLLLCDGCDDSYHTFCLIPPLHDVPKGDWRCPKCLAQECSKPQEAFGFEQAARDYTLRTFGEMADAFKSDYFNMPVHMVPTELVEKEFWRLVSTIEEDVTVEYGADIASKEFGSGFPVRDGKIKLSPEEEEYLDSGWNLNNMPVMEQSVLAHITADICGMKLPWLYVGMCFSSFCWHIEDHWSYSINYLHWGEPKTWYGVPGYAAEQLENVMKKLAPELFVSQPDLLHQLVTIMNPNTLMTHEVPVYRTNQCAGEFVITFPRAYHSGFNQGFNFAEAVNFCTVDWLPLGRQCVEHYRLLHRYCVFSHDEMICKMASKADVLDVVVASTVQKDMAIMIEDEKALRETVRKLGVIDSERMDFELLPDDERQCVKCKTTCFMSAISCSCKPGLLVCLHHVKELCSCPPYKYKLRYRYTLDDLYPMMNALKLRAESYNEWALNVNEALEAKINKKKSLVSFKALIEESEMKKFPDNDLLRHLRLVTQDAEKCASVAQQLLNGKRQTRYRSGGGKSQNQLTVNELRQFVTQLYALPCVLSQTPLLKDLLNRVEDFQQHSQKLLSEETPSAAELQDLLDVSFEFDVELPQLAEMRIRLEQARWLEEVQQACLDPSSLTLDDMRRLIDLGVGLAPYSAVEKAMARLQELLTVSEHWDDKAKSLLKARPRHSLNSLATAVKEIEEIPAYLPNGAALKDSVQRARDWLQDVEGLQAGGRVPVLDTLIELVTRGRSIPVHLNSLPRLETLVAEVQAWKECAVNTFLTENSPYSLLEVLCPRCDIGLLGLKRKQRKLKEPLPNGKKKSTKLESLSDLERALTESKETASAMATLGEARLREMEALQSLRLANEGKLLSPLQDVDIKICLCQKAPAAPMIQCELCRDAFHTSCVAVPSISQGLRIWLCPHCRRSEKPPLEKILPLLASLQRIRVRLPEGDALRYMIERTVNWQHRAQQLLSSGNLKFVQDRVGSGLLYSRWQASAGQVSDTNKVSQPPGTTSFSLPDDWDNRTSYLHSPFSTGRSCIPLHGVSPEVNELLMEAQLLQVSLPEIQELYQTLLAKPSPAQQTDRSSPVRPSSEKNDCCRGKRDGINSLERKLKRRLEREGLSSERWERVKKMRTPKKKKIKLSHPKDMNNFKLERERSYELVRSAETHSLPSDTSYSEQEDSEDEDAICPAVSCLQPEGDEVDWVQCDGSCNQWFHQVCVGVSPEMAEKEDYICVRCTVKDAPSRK

IC50 [nM]	Compound
61	CC(C)c1c(-c2cc(C(C)(C)C)n[nH]2)[nH]c2ncnn2c1=O [Example 11-135, 5-(3-tert-butyl-1H-pyrazol-5-yl)-6-(1-methylethyl)[1,2,4]triazolo[1,5-a]pyrimidin-7(4H)-one]
21.2	CC(C)c1c(-c2cccc(-n3cccn3)c2)[nH]c2ncnn2c1=O [Example 11-83, 6-(1-methylethyl)-5-[3-(1H-pyrazol-1-yl)phenyl][1,2,4]triazolo[1,5-a]pyrimidin-7(4H)-one]
